Measured values taken from the supplement of paper PMC10307832.

Legend:
Assay in all cases: relative viability (nuclei count vs DMSO), 5 days (fraction); higher = more cells survive
AZ3146 + Navitoclax = compound: CN1CCC(CC1)OC2=CC(=C(C=C2)NC3=NC=C4C(=N3)N(C(=O)N4C)C5CCCC5)OC [AZ3146] + CC1(C)CCC(c2ccc(Cl)cc2)=C(CN2CCN(c3ccc(C(=O)NS(=O)(=O)c4ccc(N[C@H](CCN5CCOCC5)CSc5ccccc5)c(S(=O)(=O)C(F)(F)F)c4)cc3)CC2)C1 [Navitoclax] (partner 0.5 µM)
In short: (§1)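 Five library-drug doses in √10 steps were combined with a fixed anchor-drug dose, or a single drug was given alone, by pin tool to lung cancer cell lines in 1536-well plates the day after seeding. Nuclei were stained and counted after 5 days. Relative viability is the nuclei count in treated wells over that in vehicle wells, taken as the median of duplicate plates.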

GSK-J4 + Crizotinib = compound: CCOC(=O)CCNc1cc(N2CCc3ccccc3CC2)nc(-c2ccccn2)n1 [GSK-J4] + C[C@@H](Oc1cc(-c2cnn(C3CCNCC3)c2)cnc1N)c1c(Cl)ccc(F)c1Cl [Crizotinib] (partner 1 µM)
In short: as §1

AZ3146 + Dasatinib = compound: CN1CCC(CC1)OC2=CC(=C(C=C2)NC3=NC=C4C(=N3)N(C(=O)N4C)C5CCCC5)OC [AZ3146] + Cc1nc(Nc2ncc(C(=O)Nc3c(C)cccc3Cl)s2)cc(N2CCN(CCO)CC2)n1 [Dasatinib] (partner 0.075 µM)
In short: as §1

AZ3146 + Luminespib = compound: CN1CCC(CC1)OC2=CC(=C(C=C2)NC3=NC=C4C(=N3)N(C(=O)N4C)C5CCCC5)OC [AZ3146] + CCNC(=O)c1noc(-c2cc(C(C)C)c(O)cc2O)c1-c1ccc(CN2CCOCC2)cc1 [Luminespib] (partner 0.01 µM)
In short: as §1

Row | Cell Line | relative viability (AZ3146 + Navitoclax; first compound 0.253 µM) | relative viability (AZ3146 + Navitoclax; first compound 0.8 µM) | relative viability (AZ3146 + Navitoclax; first compound 2.53 µM) | relative viability (AZ3146 + Navitoclax; first compound 8 µM) | relative viability (GSK-J4 + Crizotinib; first compound 0.5 µM) | relative viability (GSK-J4 + Crizotinib; first compound 1.581 µM) | relative viability (GSK-J4 + Crizotinib; first compound 5 µM) | relative viability (GSK-J4 + Crizotinib; first compound 50 µM) | relative viability (AZ3146 + Dasatinib; first compound 0.08 µM) | relative viability (AZ3146 + Dasatinib; first compound 0.253 µM) | relative viability (AZ3146 + Dasatinib; first compound 0.8 µM) | relative viability (AZ3146 + Dasatinib; first compound 2.53 µM) | relative viability (AZ3146 + Dasatinib; first compound 8 µM) | relative viability (AZ3146 + Navitoclax; first compound 0.08 µM) | relative viability (GSK-J4 + Crizotinib; first compound 15.81 µM) | relative viability (AZ3146 + Luminespib; first compound 0.08 µM) | relative viability (AZ3146 + Luminespib; first compound 0.253 µM) | relative viability (AZ3146 + Luminespib; first compound 0.8 µM) | relative viability (AZ3146 + Luminespib; first compound 2.53 µM) | relative viability (AZ3146 + Luminespib; first compound 8 µM)
1 | HCC-78 | 0.795 | 0.718 | 0.899 | 0.736 | 0.346 | 0.297 | 0.378 | 0.354 | 0.254 | 0.304 | 0.309 | 0.354 | 0.315 |  |  |  |  |  |  | 
2 | HCC-366 | 0.958 | 1.06 | 1.16 | 1.14 | 0.523 | 0.405 |  | 0.445 | 0.483 | 0.57 | 0.56 | 0.588 | 0.572 | 1.01 | 0.395 |  |  |  |  | 
3 | HCC-827 | 1.02 | 0.997 | 1.02 | 0.998 | 0.963 | 0.931 | 0.933 | 0.848 | 0.381 | 0.345 | 0.409 | 0.333 | 0.218 | 0.964 | 0.91 | 0.62 | 0.616 | 0.574 | 0.609 | 0.598
4 | HOP-62 | 1.05 | 0.938 | 1.13 | 0.913 | 0.798 | 1 | 0.965 | 0.847 | 0.603 | 0.618 | 0.609 | 0.646 | 0.656 | 1.08 | 0.994 | 0.943 | 0.865 | 0.87 | 0.959 | 0.992
5 | IA-LM | 0.785 | 0.699 | 0.881 | 0.156 | 0.793 | 0.745 | 0.867 | 0.0902 |  |  |  |  |  | 0.713 | 0.691 |  |  |  |  | 
6 | LC-2-ad | 0.385 | 0.649 | 0.519 | 0.685 | 0.554 | 0.426 | 0.375 | 0.427 | 0.549 | 0.746 | 0.584 | 0.665 | 0.527 | 0.425 | 0.41 | 0.877 | 1.16 | 1.08 | 1.09 | 1.07
7 | LCLC-97TM1 |  | 0.541 | 0.361 | 0.544 |  |  | 0.455 | 0.323 | 0.669 | 0.755 | 0.762 | 0.785 | 0.812 |  | 0.269 | 0.825 | 0.673 | 0.647 | 0.814 | 0.878
8 | LCLC-103H |  |  |  |  | 1.01 | 0.811 | 1.18 | 0.988 | 0.532 | 0.354 | 0.472 | 0.551 | 0.422 |  | 0.916 | 1.01 | 0.917 | 0.966 | 1.01 | 1.02
9 | LK-2 | 0.889 | 0.994 | 0.911 | 0.929 | 0.256 | 0.212 | 0.203 | 0.244 | 0.376 | 0.218 | 0.279 | 0.25 | 0.322 | 0.686 | 0.191 | 0.22 | 0.194 | 0.257 | 0.151 | 0.203
10 | LOU-NH91 | 0.609 | 0.76 | 0.697 | 0.7 | 0.756 | 0.711 | 0.674 | 0.712 | 0.581 | 0.485 | 0.632 | 0.602 | 0.566 | 0.685 | 0.695 | 0.351 | 0.405 | 0.374 | 0.377 | 0.385
11 | NCI-H358 |  |  |  |  | 0.643 | 0.579 | 0.537 | 0.589 | 0.2 | 0.135 | 0.149 | 0.153 | 0.209 |  | 0.55 | 0.407 | 0.383 | 0.51 | 0.508 | 0.394
12 | NCI-H522 |  |  |  |  |  |  |  |  | 0.721 | 0.73 | 0.863 | 0.815 | 1.02 |  |  | 1.1 | 1.03 | 1.2 | 1.13 | 1.18
13 | NCI-H650 |  |  |  |  | 0.568 | 0.594 | 0.525 | 0.434 | 0.351 | 0.428 | 0.435 | 0.482 | 0.491 |  | 0.494 | 0.734 | 0.706 | 0.764 | 0.904 | 0.854
14 | NCI-H661 |  |  |  |  | 0.873 | 0.969 | 1.04 | 0.814 | 0.867 | 0.859 | 0.927 | 0.765 | 0.459 |  | 0.913 | 0.928 | 0.968 | 0.96 | 0.896 | 0.688
15 | NCI-H1299 | 1.02 | 1.06 | 1 | 1.01 | 0.984 | 0.91 | 0.873 | 0.923 |  |  |  |  |  | 1.02 | 0.937 |  |  |  |  | 
16 | NCI-H1395 | 0.924 | 0.985 | 1.09 | 1.18 |  |  |  |  | 0.415 | 0.381 | 0.327 | 0.42 | 0.398 | 1.21 |  | 0.72 | 0.691 | 0.634 | 0.772 | 0.719
17 | NCI-H1563 |  |  |  |  | 0.888 | 0.779 | 0.684 | 0.857 | 0.482 | 0.48 | 0.441 | 0.422 | 0.448 |  | 0.837 | 0.465 | 0.525 | 0.477 | 0.51 | 0.511
18 | NCI-H1623 |  |  |  |  |  |  |  |  | 0.482 | 0.455 | 0.498 | 0.601 | 0.556 |  |  | 0.486 | 0.591 | 0.612 | 0.604 | 0.556
19 | NCI-H1703 | 0.91 | 0.993 | 0.708 | 0.283 | 0.736 | 0.748 | 0.431 | 0.662 |  |  |  |  |  | 1.06 | 0.616 |  |  |  |  | 
20 | NCI-H1793 | 0.311 | 0.46 | 0.492 | 0.436 |  |  |  |  | 0.303 | 0.412 | 0.404 | 0.348 | 0.423 | 0.437 |  | 0.208 | 0.173 | 0.202 | 0.145 | 0.178
21 | NCI-H2342 |  |  |  |  |  |  |  |  | 0.293 | 0.275 | 0.29 | 0.29 | 0.345 |  |  | 0.624 | 0.719 | 0.901 | 0.698 | 0.688
22 | SW 900 |  |  |  |  |  |  |  |  | 0.479 | 0.456 | 0.503 | 0.666 | 0.337 |  |  | 0.176 | 0.167 | 0.18 | 0.184 | 0.167
